# Test results published in ChEMBL document CHEMBL3885881, “DrugMatrix”.
# Species on record: Rattus norvegicus
# Experiment: DrugMatrix - Regimen: Daily Repeat
# Type: toxicity, organism-based, Sprague-Dawley
# Parameters: regimen Daily Repeat, gender Male, age 6-8 weeks
# Conditions: in vivo, po, 56 mg/kg, route oral GAVAGE, […]
# [1] = 72 h, tissue Plasma, dose level Low, time 3 day
# [2] = 120 h, tissue Blood, dose level High, time 5 day
# [3] = 120 h, tissue Blood, dose level Low, time 5 day
# [4] = 120 h, tissue Plasma, dose level High, time 5 day
# [5] = 120 h, tissue Plasma, dose level Low, time 5 day
# [6] = tissue Blood, dose level High, time 28 day
# [7] = tissue Plasma, dose level High, time 28 day
structure (smiles),measurement,setting,value
NC[C@@H]1O[C@H](O[C@H]2[C@@H](O)[C@H](O[C@@H]3[C@@H](O)[C@H](N)C[C@H](N)[C@H]3O[C@H]3O[C@H](CN)[C@@H](O)[C@H](O)[C@H]3N)O[C@@H]2CO)[C@H](N)[C@@H](O)[C@@H]1O [FRAMYCETIN],CREATININE,[1],0.19 mg/dL
same,GLUCOSE,[1],156.33 mg/dL
same,LACTATE DEHYDROGENASE,[1],107.33 u/L
same,LIPASE,[1],10.33 u/L
same,PHOSPHORUS,[1],10.8 mg/dL
same,POTASSIUM,[1],5.83 MEQ/L
same,SODIUM,[1],143.17 MEQ/L
same,TOTAL BILIRUBIN,[1],0.1 mg/dL
same,TOTAL PROTEIN,[1],5.97 G/DL
same,URIC ACID,[1],0.4 mg/dL
same,BASOPHIL,[2],0.36%
same,EOSINOPHIL,[2],0.6%
same,ERYTHROCYTE COUNT,[2],7.45 x10E6/uL
same,HEMATOCRIT,[2],49.44%
same,HEMOGLOBIN,[2],15.6 G/DL
same,LEUKOCYTE COUNT,[2],6.84 x10E3/uL
same,LYMPHOCYTE,[2],82.08%
same,MEAN CORPUSCULAR HEMOGLOBIN,[2],20.94 pg
same,MEAN CORPUSCULAR HEMOGLOBIN CONCENTRATION,[2],31.58 G/DL
same,MEAN CORPUSCULAR VOLUME,[2],66.34 fL
same,MONOCYTE,[2],1.68%
same,NEUTROPHIL,[2],14.3%
same,PLATELET COUNT,[2],1274.6 x10E3/uL
same,ABSOLUTE BASOPHIL,[3],0 CELLS/uL
same,ABSOLUTE EOSINOPHIL,[3],0 CELLS/uL
same,ABSOLUTE LYMPHOCYTE,[3],7805 CELLS/uL
same,ABSOLUTE MONOCYTE,[3],76.67 CELLS/uL
same,ABSOLUTE SEGMENTED NEUTROPHIL,[3],785 CELLS/uL
same,BASOPHIL,[3],0%
same,EOSINOPHIL,[3],0%
same,ERYTHROCYTE COUNT,[3],5.67 x10E6/uL
same,HEMATOCRIT,[3],34.13%
same,HEMOGLOBIN,[3],13.3 G/DL
same,LEUKOCYTE COUNT,[3],8.67 x10E3/uL
same,LYMPHOCYTE,[3],89.33%
same,MEAN CORPUSCULAR HEMOGLOBIN,[3],23.47 pg
same,MEAN CORPUSCULAR HEMOGLOBIN CONCENTRATION,[3],38.97 G/DL
same,MEAN CORPUSCULAR VOLUME,[3],60.2 fL
same,MONOCYTE,[3],1%
same,NEUTROPHIL,[3],9.67%
same,NUCLEATED RED BLOOD CELLS,[3],0 /100WBC
same,PLATELET COUNT,[3],1077 x10E3/uL
same,ALANINE AMINOTRANSFERASE,[4],29 u/L
same,ALBUMIN,[4],3.74 G/DL
same,ALKALINE PHOSPHATASE,[4],336 u/L
same,ASPARTATE AMINOTRANSFERASE,[4],73.8 u/L
same,BLOOD UREA NITROGEN,[4],6.6 mg/dL
same,CHLORIDE,[4],109.6 MEQ/L
same,CHOLESTEROL,[4],60.6 mg/dL
same,CREATINE PHOSPHOKINASE,[4],307 u/L
same,CREATININE,[4],0.28 mg/dL
same,GLUCOSE,[4],128.6 mg/dL
same,PHOSPHORUS,[4],13.88 mg/dL
same,POTASSIUM,[4],6.96 MEQ/L
same,SODIUM,[4],151.8 MEQ/L
same,TOTAL BILIRUBIN,[4],0.16 mg/dL
same,TOTAL PROTEIN,[4],6.22 G/DL
same,ALANINE AMINOTRANSFERASE,[5],68.67 u/L
same,ALBUMIN,[5],4.03 G/DL
same,ALKALINE PHOSPHATASE,[5],434 u/L
same,ASPARTATE AMINOTRANSFERASE,[5],94.67 u/L
same,BLOOD UREA NITROGEN,[5],12 mg/dL
same,CARBON DIOXIDE,[5],26.33 mmol/L
same,CHLORIDE,[5],104 MEQ/L
same,CHOLESTEROL,[5],74.67 mg/dL
same,CREATINE PHOSPHOKINASE,[5],481.67 u/L
same,CREATININE,[5],0.23 mg/dL
same,GLUCOSE,[5],156.33 mg/dL
same,LACTATE DEHYDROGENASE,[5],224 u/L
same,LIPASE,[5],10.33 u/L
same,PHOSPHORUS,[5],10.57 mg/dL
same,POTASSIUM,[5],6.71 MEQ/L
same,SODIUM,[5],148.83 MEQ/L
same,TOTAL BILIRUBIN,[5],0.17 mg/dL
same,TOTAL PROTEIN,[5],6.03 G/DL
same,URIC ACID,[5],1.13 mg/dL
same,BASOPHIL,[6],0.48%
same,EOSINOPHIL,[6],0.51%
same,ERYTHROCYTE COUNT,[6],8.01 x10E6/uL
same,HEMATOCRIT,[6],48.92%
same,HEMOGLOBIN,[6],15.88 G/DL
same,LEUKOCYTE COUNT,[6],12.82 x10E3/uL
same,LYMPHOCYTE,[6],83.46%
same,MEAN CORPUSCULAR HEMOGLOBIN,[6],19.85 pg
same,MEAN CORPUSCULAR HEMOGLOBIN CONCENTRATION,[6],32.47 G/DL
same,MEAN CORPUSCULAR VOLUME,[6],61.12 fL
same,MONOCYTE,[6],1.54%
same,NEUTROPHIL,[6],12.95%
same,PLATELET COUNT,[6],1208.1 x10E3/uL
same,ALANINE AMINOTRANSFERASE,[7],26.9 u/L
same,ALBUMIN,[7],3.85 G/DL
same,ALKALINE PHOSPHATASE,[7],200.9 u/L
same,ASPARTATE AMINOTRANSFERASE,[7],62.4 u/L
same,BLOOD UREA NITROGEN,[7],11 mg/dL
same,CHLORIDE,[7],107.1 MEQ/L
same,CHOLESTEROL,[7],54.5 mg/dL
same,CREATINE PHOSPHOKINASE,[7],177.2 u/L
same,CREATININE,[7],0.38 mg/dL
same,GLUCOSE,[7],135.2 mg/dL
same,PHOSPHORUS,[7],11.16 mg/dL
same,POTASSIUM,[7],6.5 MEQ/L
same,SODIUM,[7],151.5 MEQ/L
same,TOTAL BILIRUBIN,[7],0.22 mg/dL
same,TOTAL PROTEIN,[7],6.52 G/DL
